Results taken from patent US12162913B2 (priority 2016, dated 2024).
“Also recorded” adds a separate entry of the source. Like-named read-outs stand apart in the source and are kept apart here.

Legend:
[1] = biological target: R. microplus nAChRα6 (Rma6) homopentamers (Rhipicephalus microplus, UniProt A0A223PM23); experiment: Two-electrode voltage clamp on Xenopus oocytes expressing Rmα6 homopentamers; assay type: cell-based
Method: (§1) The plasmids containing the sequences of choice were linearized using BeuI (Spel) FastDigest (ThermoFisher) restriction enzyme for 30 min at 37°, and an aliquot run on an agarose gel to check for complete linearization. The plasmid DNA was phenol:chloroform purified and ethanol precipitated. The pellet was re-suspended in deionized water. Capped RNA was synthesized using mMessage mMachine T7 kit from 1 μg linearized plasmid DNA, the sample phenol:chloroform purified and isopropanol precipitated. The pellet was re-suspended in deionized water to a concentration of 500 ng/μl, analysed on an agarose gel for integrity and stored at −80° C. until further use.
(§2) Xenopus laevis oocytes were purchased as whole ovaries from the European Xenopus Resource Centre (University of Portsmouth), delivered in less than 24 h in Modified Barth's Saline (MBS) on wet ice. Upon arrival, the oocytes were treated with 2 mg/ml collagenase type I (Sigma-Aldrich) in calcium-free Barth's solution (NaCl 88 mM, Tris-HCl 15 mM, NaHCO32.4 mM, MgCl2 0.82 mM, KCl 1 mM, pH 7.5) for 30 min at room temperature. The separated oocytes were rinsed thoroughly in calcium-free Barth's solution, manually de-folliculated and injected using a Drummond microinjector with 25 ng/oocyte capped RNA. The oocytes were incubated at 18° C. in calcium-containing ([…]) Barth's solution supplemented with 4 μg/ml Kanamycin, 50 μg/ml Tetracycline, 100 U/ml Penicillin and 100 μg/ml Streptomycin. Two-electrode voltage clamp recordings were performed after 3-5 days using an OC-725C oocyte clamp (Warner instruments) with the membrane potential clamped at −60 mV. The oocytes were continuously perfused with frog Ringer's solution (NaCl 115 mM, KCl 2.5 mM, CaCl2) 1.8 mM and HEPES 10 mM) and the dilutions of ligands prepared in Ringer's saline applied using a VC-8 multi-valve perfusion system (Warner Instruments). Following ligand application, the current required to maintain the membrane potential at −60 mV was measured and used for subsequent data analysis.
(§3) Two-electrode voltage clamp electrophysiology data acquisition was done using LabScribe software (iWorks Systems) and the data transferred to GraphPad Prism (GraphPad Software) for traces analysis and dose-response curve fitting.

[2] = biological target: R. microplus nAChRα5 (Rmα5) homopentamers (Rhipicephalus microplus, UniProt A0A223PM17, I539V); assay type: cell-based
Method: as §1, §2, §3

Chain of R. microplus nAChRα5 (Rmα5) homopentamers (A0A223PM17 entry or part of it I539V): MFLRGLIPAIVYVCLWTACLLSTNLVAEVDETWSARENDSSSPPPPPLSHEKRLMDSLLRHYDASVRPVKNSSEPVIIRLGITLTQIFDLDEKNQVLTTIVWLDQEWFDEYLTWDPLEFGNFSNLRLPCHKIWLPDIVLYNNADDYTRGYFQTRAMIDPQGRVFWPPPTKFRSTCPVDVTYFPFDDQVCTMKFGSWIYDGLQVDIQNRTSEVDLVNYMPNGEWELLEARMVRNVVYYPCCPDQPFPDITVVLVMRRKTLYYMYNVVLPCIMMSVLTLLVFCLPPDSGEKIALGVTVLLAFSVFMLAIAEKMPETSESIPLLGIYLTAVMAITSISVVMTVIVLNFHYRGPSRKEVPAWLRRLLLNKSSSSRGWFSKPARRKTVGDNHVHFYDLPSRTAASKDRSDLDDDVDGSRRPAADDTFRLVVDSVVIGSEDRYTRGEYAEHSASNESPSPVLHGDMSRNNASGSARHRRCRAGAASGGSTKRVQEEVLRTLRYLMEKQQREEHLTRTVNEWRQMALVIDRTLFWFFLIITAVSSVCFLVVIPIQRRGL
Chain of R. microplus nAChRα6 (Rma6) homopentamers (A0A223PM23 entry or part of it): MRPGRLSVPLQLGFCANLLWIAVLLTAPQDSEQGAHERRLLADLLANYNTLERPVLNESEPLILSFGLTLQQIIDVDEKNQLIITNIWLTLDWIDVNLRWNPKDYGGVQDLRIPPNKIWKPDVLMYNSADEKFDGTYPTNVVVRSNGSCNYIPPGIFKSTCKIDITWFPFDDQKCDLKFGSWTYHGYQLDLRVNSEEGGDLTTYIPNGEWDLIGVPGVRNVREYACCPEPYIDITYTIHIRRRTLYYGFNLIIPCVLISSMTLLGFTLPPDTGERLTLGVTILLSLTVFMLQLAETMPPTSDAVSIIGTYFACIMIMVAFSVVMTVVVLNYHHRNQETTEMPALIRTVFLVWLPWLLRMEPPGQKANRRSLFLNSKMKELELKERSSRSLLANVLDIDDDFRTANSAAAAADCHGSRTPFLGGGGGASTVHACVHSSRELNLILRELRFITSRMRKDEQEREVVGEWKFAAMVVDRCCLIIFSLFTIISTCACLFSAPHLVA

| Compound | EC50 ([1]; membrane potential clamped at −60 mV, dose-response curve, read-out: EC50 (activation of Rma6 receptor)) [nM] | action on Rma6 receptor [1] | character of responses on Rma6 [1] | action on Rma6 receptor ([1]; listed as imidacloprid) | EC50 of spinosad lower than ACh EC50 (fold) ([2]; Rmα5 receptor) | action on Rmα5 receptor ([2]; Xenopus oocytes) | character of responses on Rmα5 ([2]; Xenopus oocytes, ACh 300 μM, spinosad 30 μM representative traces) | time to response plateau ([2]; during application) | time to first signs of depolarization ([2]; during perfusion) |
| --- | --- | --- | --- | --- | --- | --- | --- | --- | --- |
| CC(=O)OCC[N+](C)(C)C [ACh, acetylcholine] | 1970 ± 1200 | – | – | – | – | – | – | – | – |
| O=[N+]([O-])NC1=NCCN1Cc1ccc(Cl)nc1 [Imidacloprid, imidacloprid] | – | partial agonist | small, non-desensitizing responses | induced responses | – | – | – | – | – |
| spinosad | – | does not directly activate; also recorded: type II allosteric modulator | – | – | over 10 times | higher efficacy than ACh; also recorded: agonist | large and also non-desensitizing | around 30 s | about 15 s |
